Entries after “also recorded” stand apart in the source; their conditions may differ. Non-standard residues stand in square brackets, D forms with d. Residues, ends and D or L forms follow the SMILES beside them. dPhe(4-NH2) = Nc1ccc(C[C@@H](N)C(=O)O)cc1; dPhe(4-Cl) = N[C@H](Cc1ccc(Cl)cc1)C(=O)O; Phe(4-NH2) = Nc1ccc(C[C@H](N)C(=O)O)cc1; d2Nal = N[C@H](Cc1ccc2ccccc2c1)C(=O)O; Lys(iPr) = CC(C)NCCCC[C@H](N)C(=O)O; d3Pal = N[C@H](Cc1cccnc1)C(=O)O
Experiment: Gelation of acyline in pH 6.8 buffer with sodium caprate and Tween 80 (filtration, HPLC)
Assay type: physicochemical
Description: Different concentrations of acyline composition are prepared by adding acyline to pH 6.8 buffer solution either at room temperature or 37° C. All acyline solutions contain 0.6 mg/mL sodium caprate (sodium caprate is referred as C10 in the figures). All samples are centrifuged and filtered prior to analysis. Samples are analyzed by reverse phase HPLC with UV detection. 10 mg acyline is transferred into […] volumetric flask. A pH 6.8 buffer solution is preheated to 37° C. Then, 100 mL pre-heated buffer solution and 0.6 mg/mL sodium caprate is added to the flask to prepare a 0.1 mg/mL acyline sample. In a similar manner, Tween 80 is added to prepare a 0.1 mg/mL acyline solution with 1% Tween 80. Samples are shaken in a temperature controlled water bath at 37° C. 5 mL samples are taken at 1, 5, 10, 15, 20, 30 and 120 minutes after mixing acyline with the buffer solution. Samples are filtered immediately through 0.45 μm filters and the first 3 mL is discarded. Filtered samples are analyzed, undiluted, by reverse phase HPLC with UV detection. All samples are prepared in duplicate and the concentration was obtained for the analysis from the mean of the duplicates. The result of comparison of 1% and 0% Tween 80 at 0.1 mg/mL acyline sample is graphically recorded in FIG. 5. […] A similar experimental procedure as Example 4 is used to prepare acyline sample for example 5. The result of comparison of 5 mg/mL, 1.0 mg/mL, 0.1 mg/mL, and 0.1% Tween in phosphate buffer containing 0.6 mg/mL of sodium caprate and 0.1 mg/mL acyline is graphically recorded in FIG. 6. […] A similar experimental procedure as Example 4 is used to prepare acyline sample for example 6. The result of comparison of 1% and 1 mg/mL Tween 80 in 0.1 and 0.01 mg/mL acyline sample is graphically recorded in FIG. 7. […] A similar experimental procedure as Example 4 is used to prepare acyline sample for example 7. The result of comparison of 0.01 mg/mL acyline samples having 0.1%, 0.5% and 1% Tween 80 is graphically recorded in FIG. 8.

With `CC(=O)Nc1ccc(C[C@H](NC(=O)[C@H](CO)NC(=O)[C@@H](Cc2cccnc2)NC(=O)[C@@H](Cc2ccc(Cl)cc2)NC(=O)[C@@H](Cc2ccc3ccccc3c2)NC(C)=O)C(=O)N[C@H](Cc2ccc(NC(C)=O)cc2)C(=O)N[C@@H](CC(C)C)C(=O)N[C@@H](CCCCNC(C)C)C(=O)N2CCC[C@H]2C(=O)N[C@H](C)C(N)=O)cc1` [acyline, Ac-D2Nal-D4Cpa-D3Pal-Ser4Aph(Ac)-D4Aph(Ac)-Leu-ILys-Pro-DAla-NH2] (Ac-[d2Nal][dPhe(4-Cl)][d3Pal]S[Phe(4-NH2)](Ac)[dPhe(4-NH2)](Ac)L[Lys(iPr)]P[dA]-NH2) the gelation of acyline (0.01 mg/mL acyline, 0.6 mg/mL sodium caprate, 1% Tween 80) was “significantly reduces the gelation”, the gelation of acyline (0.1 mg/mL acyline, 0.6 mg/mL sodium caprate, 1% Tween 80) was “successfully reduces the gelation; also recorded: completely inhibit the gelation” and the gelation of acyline (0.1 mg/mL acyline, 37° C., 0.6 mg/mL sodium caprate alone (0% Tween 80)) was “insufficient to reduce the gelation”.

— patent US20090280169A1, “Compositions of peptides and processes of preparation thereof” (Merrion Research III Limited, priority 2008, published 2009)
